In patent US9884063B2, “Amido-substituted azole compounds” (Bayer Pharma Aktiengesellschaft, priority 2014, dated 2018) one finds IC50 data, which are given here for 21 compounds.

One assay deals with T1, TNKS1 (Homo sapiens, UniProt O95271).
T1 sequence (O95271 1-1327): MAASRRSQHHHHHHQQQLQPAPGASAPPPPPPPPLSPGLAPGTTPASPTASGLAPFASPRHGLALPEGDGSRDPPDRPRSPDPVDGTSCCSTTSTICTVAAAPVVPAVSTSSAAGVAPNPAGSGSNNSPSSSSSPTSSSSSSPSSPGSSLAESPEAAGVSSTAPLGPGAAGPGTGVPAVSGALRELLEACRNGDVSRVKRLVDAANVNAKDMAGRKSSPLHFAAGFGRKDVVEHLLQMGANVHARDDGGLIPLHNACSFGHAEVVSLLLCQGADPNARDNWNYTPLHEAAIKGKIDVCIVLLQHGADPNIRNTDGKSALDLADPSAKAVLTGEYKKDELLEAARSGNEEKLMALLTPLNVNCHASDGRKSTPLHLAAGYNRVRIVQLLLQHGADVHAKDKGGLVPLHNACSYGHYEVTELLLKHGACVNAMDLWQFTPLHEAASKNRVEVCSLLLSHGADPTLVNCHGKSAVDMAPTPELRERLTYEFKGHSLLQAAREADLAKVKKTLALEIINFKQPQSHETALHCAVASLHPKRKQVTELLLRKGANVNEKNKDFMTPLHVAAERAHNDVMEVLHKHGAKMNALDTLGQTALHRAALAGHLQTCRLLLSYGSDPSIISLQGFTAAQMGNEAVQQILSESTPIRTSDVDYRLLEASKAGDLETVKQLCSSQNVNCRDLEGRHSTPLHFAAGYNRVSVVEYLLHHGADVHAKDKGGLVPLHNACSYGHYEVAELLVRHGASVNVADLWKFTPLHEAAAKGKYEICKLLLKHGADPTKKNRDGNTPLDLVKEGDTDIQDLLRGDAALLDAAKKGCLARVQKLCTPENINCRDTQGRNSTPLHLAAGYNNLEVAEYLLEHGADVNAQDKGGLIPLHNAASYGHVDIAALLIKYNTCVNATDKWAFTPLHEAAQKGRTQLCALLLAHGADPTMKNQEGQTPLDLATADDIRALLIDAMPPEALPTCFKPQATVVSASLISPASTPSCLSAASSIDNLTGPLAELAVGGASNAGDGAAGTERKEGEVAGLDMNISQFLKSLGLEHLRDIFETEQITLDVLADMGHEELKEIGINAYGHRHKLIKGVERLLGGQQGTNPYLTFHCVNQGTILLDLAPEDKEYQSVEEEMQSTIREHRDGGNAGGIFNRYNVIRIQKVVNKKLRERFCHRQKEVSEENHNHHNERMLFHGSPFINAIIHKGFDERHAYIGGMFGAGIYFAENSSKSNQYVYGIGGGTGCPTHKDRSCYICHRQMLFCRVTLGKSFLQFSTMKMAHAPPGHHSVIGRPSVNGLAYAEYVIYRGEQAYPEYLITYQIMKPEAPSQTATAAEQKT
As to the kind of experiment: TNKS1 Assay 1 (TNKS1 Histone Ribosylation Assay Kit, biotin-labeled NAD+). The assay is classed as biochemical. As to conditions: chemiluminescent readout, 384 well. On the procedure: The potency of the compounds according to the invention was assessed by applying an in vitro inhibition assay. The TNKS1 catalyzed NAD^+-dependent ribosylation of a suitable protein substrate was detected using a commercially available biotin/streptavidin binding based assay format [TNKS1 Histone Ribosylation Assay Kit (Biotin-labeled NAD+), Catalog #80579; BPS Bioscience, San Diego, USA]. Here, the incorporation of a biotin-labeled NAD+ during the TNKS1 catalyzed ribosylation reaction was detected with a streptavidin-HRP coupled chemi-luminescent readout. The intensity of the readout signal is proportional to the incorporated NAD^+. Inhibition of TNKS1 leads to a decreased incorporation of NAD^+ and consequently to a lower readout signal intensity. The concentration of a test compound which inhibits the enzyme activity by 50% (corresponds to half of the normed readout signal intensity) is reported as IC50.
The assay was conducted in a 384 well MTP format according to the manufacturer's protocol [bpsbioscience.com/poly-adp-ribose-polymerase/assay-kit/tnks1-histone-ribosylation-assay-kit-biotin-labeled-nad-80579 referencing: Brown, J. A., Marala, R. B. J. Pharmacol. Toxicol. Methods 2002 47:137-41] and using a BMG Pherastar MTP reader [BMG-Labtech, Offenburg, Germany].

For assay [1], the system named is HEK293 FOP control reporter cell line. As to the kind of experiment: HEK293 FOP Assay (FOP control vector luciferase reporter). The assay is classed as cell-based. As to conditions: Homo sapiens. The gist of the method: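 Compound series 50 μM to 15 nM, 3.16-fold steps, were diluted in CAFTY buffer (pH 7.4, 2 mM Ca2+, 0.01% BSA) and tested alongside the TOP reporter line. Human Wnt-3a was added at 2500–5 ng/ml in two-fold steps. The control HEK293 line stably holds an FOP vector whose TCF elements are randomized and non-functional.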

The mark [2] stands for this setting: HEK293 FOP control reporter cell line, 16 hours incubation, compound dilution series 50 μM to 15 nM.
Setting [3] is: HEK293 FOP control reporter cells, 16 hours, luciferase, dilution series from 50 μM.

For the compound `CNC(=O)c1nc[nH]c1C(=O)Nc1ccc(NC(=O)c2cccc(Cl)c2Cl)cc1` [Example 1, N^5-{4-[(2,3-dichlorobenzoyl)amino]phenyl}-N^4-methyl-1H-imidazole-4,5-dicarboxamide], the concentration for half-maximal inhibition (IC50) against TNKS1 (Table 1) amounted to 1.01 µM; on TNKS1 (first table) it was 1.01 µM; in assay [1] (setting [2]) it was 24 µM; in assay [1] (setting [3]) it was 25 µM.
On to `CNC(=O)c1nc[nH]c1C(=O)Nc1ccc(NC(=O)c2ccc(N3CCCC3)cc2F)cc1` [Example 3, N^5-(4-{[2-fluoro-4-(pyrrolidin-1-yl)benzoyl]amino}phenyl)-N^4-methyl-1H-imidazole-4,5-dicarboxamide], for which the IC50 was > 100 µM at TNKS1 (Table 1) and ≥ 50 µM in assay [1] (setting [3]).
As to `CNC(=O)c1nc[nH]c1C(=O)Nc1ccc(NC(=O)c2ccc(N(C)C)cc2Cl)cc1` [Example 4, N^5-(4-{[2-chloro-4-(dimethylamino)benzoyl]amino}phenyl)-N^4-methyl-1H-imidazole-4,5-dicarboxamide], the IC50 against TNKS1 (Table 1) turned out to be 0.12 µM; at TNKS1 (first table), 0.12 µM; in assay [1] (setting [2]), 42 µM; in assay [1] (setting [3]) it was 42 µM.
With `O=C(NCCN1CCCCC1)c1nc[nH]c1C(=O)Nc1ccc(NC(=O)c2c(F)cc(F)cc2Cl)cc1` [Example 119, N^5-{4-[(2-chloro-4,6-difluorobenzoyl)amino]phenyl}-N^4-[2-(piperidin-1-yl)ethyl]-1H-imidazole-4,5-dicarboxamide], the IC50 in assay [1] (setting [2]) is 20 µM.
Same read-out and setting: next, `CNC(=O)c1nc[nH]c1C(=O)Nc1ccc(NC(=O)c2cc(OCCN3CCCCC3)ccc2Cl)cc1` [Example 125, N^5-[4-({2-chloro-5-[2-(piperidin-1-yl)ethoxy]benzoyl}amino)phenyl]-N^4-methyl-1H-imidazole-4,5-dicarboxamide]: 15 µM; `CC1CCN(CCNC(=O)c2nc[nH]c2C(=O)Nc2ccc(NC(=O)c3ccc(F)cc3Cl)cc2)CC1` [Example 126, N^5-{4-[(2-chloro-4-fluorobenzoyl)amino]phenyl}-N^4-[2-(4-methylpiperidin-1-yl)ethyl]-1H-imidazole-4,5-dicarboxamide]: 27 µM.
On to `CC(C)CNC(=O)c1[nH]cnc1C(=O)Nc1ccc(NC(=O)c2ccc(F)cc2Cl)cc1` [Example 147, N^4-{4-[(2-chloro-4-fluorobenzoyl)amino]phenyl}-N^5-isobutyl-1H-imidazole-4,5-dicarboxamide], for which, in assay [1] (setting [2]), half-maximal inhibition (IC50) was put at 6 µM.
Still for that read-out and setting: next, `CC(C)(C)CNC(=O)c1[nH]cnc1C(=O)Nc1ccc(NC(=O)c2ccccc2Cl)cc1` [Example 148, N^4-{4-[(2-chlorobenzoyl)amino]phenyl}-N^5-(2,2-dimethylpropyl)-1H-imidazole-4,5-dicarboxamide]: 16 µM.
Still for that read-out and setting: next, `CC(C)(CNC(=O)c1[nH]cnc1C(=O)Nc1ccc(NC(=O)c2ccccc2Cl)cc1)N1CCCCC1` [Example 165, N^4-{4-[(2-chlorobenzoyl)amino]phenyl}-N^5-[2-methyl-2-(piperidin-1-yl)propyl]-1H-imidazole-4,5-dicarboxamide]: 31 µM.
The same measure, in the same setting: next, `CC(C)(CN1CCCCC1)NC(=O)c1[nH]cnc1C(=O)Nc1ccc(NC(=O)c2ccccc2Cl)cc1` [Example 171, N^4-{4-[(2-chlorobenzoyl)amino]phenyl}-N^5-[2-methyl-1-(piperidin-1-yl)propan-2-yl]-1H-imidazole-4,5-dicarboxamide]: 6.5 µM.
In the case of `CC(C)(CN1CCOCC1)NC(=O)c1[nH]cnc1C(=O)Nc1ccc(NC(=O)c2ccc(F)cc2)cc1` [Example 180, N^4-{4-[(4-fluorobenzoyl)amino]phenyl}-N^5-[2-methyl-1-(morpholin-4-yl)propan-2-yl]-1H-imidazole-4,5-dicarboxamide], half-maximal inhibition in assay [1] (setting [2]) (IC50) required 37 µM.
In assay [1] (setting [2]), `CN1CCN(C(C)(C)CNC(=O)c2[nH]cnc2C(=O)Nc2ccc(NC(=O)c3ccc(F)cc3Cl)cc2)CC1` [Example 187, N^4-{4-[(2-chloro-4-fluorobenzoyl)amino]phenyl}-N^5-[2-methyl-2-(4-methylpiperazin-1-yl)propyl]-1H-imidazole-4,5-dicarboxamide] gave an IC50 of 28 µM.
On the same count and under the same terms, next, `O=C(Nc1ccc(NC(=O)c2nc[nH]c2C(=O)NCCCCN2CCCCC2)cc1)c1ccccc1Cl` [Example 189, N^4-{4-[(2-chlorobenzoyl)amino]phenyl}-N^5-[4-(piperidin-1-yl)butyl]-1H-imidazole-4,5-dicarboxamide]: 28 µM.
Same read-out and setting: next, `O=C(Nc1ccc(NC(=O)c2nc[nH]c2C(=O)NCCCN2CCOCC2)cc1)c1ccccc1Cl` [Example 200, N^4-{4-[(2-chlorobenzoyl)amino]phenyl}-N^5-[3-(morpholin-4-yl)propyl]-1H-imidazole-4,5-dicarboxamide]: 20 µM; `CC1CCCN(CCNC(=O)c2[nH]cnc2C(=O)Nc2ccc(NC(=O)c3ccc(F)cc3Cl)cc2)C1` (stereo not shown) [Example 208, N^4-{4-[(2-chloro-4-fluorobenzoyl)amino]phenyl}-N^5-[2-(3-methylpiperidin-1-yl)ethyl]-1H-imidazole-4,5-dicarboxamide]: 23 µM; `CC(C)(CNC(=O)c1[nH]cnc1C(=O)Nc1ccc(NC(=O)c2ccc(F)cc2)cc1)N1CCCCC1` [Example 209, N^4-{4-[(4-fluorobenzoyl)amino]phenyl}-N^5-[2-methyl-2-(piperidin-1-yl)propyl]-1H-imidazole-4,5-dicarboxamide]: 22 µM.
In assay [1] (setting [2]), `O=C(Nc1ccc(NC(=O)c2nc[nH]c2C(=O)NCCN2CCCCC2)cc1)c1ccc(F)cc1Br` [Example 216, N^4-{4-[(2-bromo-4-fluorobenzoyl)amino]phenyl}-N^5-[2-(piperidin-1-yl)ethyl]-1H-imidazole-4,5-dicarboxamide] registered an IC50 of 11 µM.
Turning to `O=C(Nc1ccc(NC(=O)c2ocnc2C(=O)NCCN2CCC(F)(F)CC2)cc1)c1ccc(F)cc1Cl` [Example 218, N^5-{4-[(2-chloro-4-fluorobenzoyl)amino]phenyl}-N^4-[2-(4,4-difluoropiperidin-1-yl)ethyl]-1,3-oxazole-4,5-dicarboxamide], in assay [1] (setting [2]), it took 31.5 µM to reach half-maximal inhibition (IC50).
Still for that read-out and setting: next, `O=C(Nc1ccc(NC(=O)c2nc[nH]c2C(=O)NC2CCOC2)cc1)c1ccc(F)cc1Cl` (stereo not shown) [Example 236, N^4-{4-[(2-chloro-4-fluorobenzoyl)amino]phenyl}-N^5-(tetrahydrofuran-3-yl)-1H-imidazole-4,5-dicarboxamide]: 34 µM; `CNC(=O)c1nc[nH]c1C(=O)Nc1ccc(NC(=O)c2ncccc2Cl)cc1` [Example 247, N^5-(4-{[(3-chloropyridin-2-yl)carbonyl]amino}phenyl)-N^4-methyl-1H-imidazole-4,5-dicarboxamide]: 35 µM.
With `CCNC(=O)c1nc[nH]c1C(=O)Nc1ccc(NC(=O)c2ccc(OCC)cc2Cl)cc1` [Example 259, N^5-{4-[(2-chloro-4-ethoxybenzoyl)amino]phenyl}-N^4-ethyl-1H-imidazole-4,5-dicarboxamide], the IC50 in assay [1] (setting [2]) is 33 µM.
